ChEMBL document CHEMBL2346567, “Selective aminopeptidase-N (CD13) inhibitors with relevance to cancer chemotherapy” (Bioorg Med Chem, 2013)
pKi: −log10 of the molar value. The source made the active and inactive calls. The rule behind the calls is not given here.

Assays:
[1] = tested on: HUVEC; test: Antimigratory activity against human HUVEC cells assessed as inhibition of VEGF-induced migration at 1 uM after 16 hrs by Boyden chamber assay; type: functional
[2] = tested on: HUVEC; test: Antiangiogenic activity against human HUVEC cells assessed as inhibition of capillary tube formation at 1 uM after 24 hrs by phase contrast microscopic analysis; type: functional, cell-based
[3] = tested on: A673; test: Antitumor activity against human A673 cells xenografted in athymic nude mouse assessed as tumor growth inhibition at 30 mg/kg, ip administered as single dose measured on day 26 relative to control; type: functional; conditions: 624 h, route intraperitoneal, read-out: TGI
[4] = tested on: Mus musculus; test: Toxicity in Swiss nude mouse assessed as adverse effects at 40 mg/kg, ip administered once every 3 days 8 times measured after 29 days; type: organism-based; design: dose 40 mg/kg, route intraperitoneal; conditions: in vivo, 696 h
[5] = Chemical stability of the compound in DMSO solution at 5 mg/ml after 20 days at -20 degC; type: physicochemical; conditions: 480 h
[6] = Chemical stability of the compound in DMSO solution at 5 mg/ml after 20 days at 25 degC; type: physicochemical; conditions: 480 h
[7] = Antitumor activity against human colon cancer cells expressing high level of APN xenografted in athymic nude mouse at 30 mg/kg, ip administered once every 3 days relative to control; type: functional; conditions: Cancer cell lines, 72 h, route intraperitoneal, read-out: TGI
[8] = Antimigratory activity against human Caco2/TC7 cells at 1 uM after 16 hrs by wound healing assay; type: functional, Caco-2
[9] = biological target: Matrix metalloproteinase-9 (Homo sapiens) (UniProt P14780); test: Inhibition of MMP9 (unknown origin) up to 50 uM
Matrix metalloproteinase-9 (Homo sapiens), sequence (P14780 whole entry): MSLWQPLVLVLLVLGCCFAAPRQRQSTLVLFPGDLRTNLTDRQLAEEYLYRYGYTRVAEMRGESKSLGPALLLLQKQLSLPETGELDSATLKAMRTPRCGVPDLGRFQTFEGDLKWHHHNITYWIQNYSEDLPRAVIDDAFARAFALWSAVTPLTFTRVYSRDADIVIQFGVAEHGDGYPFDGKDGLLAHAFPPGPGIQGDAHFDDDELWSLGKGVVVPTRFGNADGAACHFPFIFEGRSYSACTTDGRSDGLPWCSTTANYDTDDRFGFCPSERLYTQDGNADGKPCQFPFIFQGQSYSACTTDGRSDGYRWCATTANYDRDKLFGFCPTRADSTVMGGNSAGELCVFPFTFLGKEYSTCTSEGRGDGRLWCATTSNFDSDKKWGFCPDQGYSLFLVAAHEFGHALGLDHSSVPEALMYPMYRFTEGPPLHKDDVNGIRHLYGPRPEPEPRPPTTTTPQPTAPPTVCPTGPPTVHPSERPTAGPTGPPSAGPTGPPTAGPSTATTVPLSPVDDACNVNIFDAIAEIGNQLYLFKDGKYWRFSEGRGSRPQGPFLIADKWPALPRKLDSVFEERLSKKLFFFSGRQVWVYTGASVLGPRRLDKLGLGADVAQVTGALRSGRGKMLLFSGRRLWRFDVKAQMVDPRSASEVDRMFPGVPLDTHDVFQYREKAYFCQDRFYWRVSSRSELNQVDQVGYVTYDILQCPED

[10] = biological target: T1, Stromelysin-3 (Homo sapiens) (UniProt P24347); test: Inhibition of MMP11 (unknown origin) up to 50 uM
T1 sequence (whole entry): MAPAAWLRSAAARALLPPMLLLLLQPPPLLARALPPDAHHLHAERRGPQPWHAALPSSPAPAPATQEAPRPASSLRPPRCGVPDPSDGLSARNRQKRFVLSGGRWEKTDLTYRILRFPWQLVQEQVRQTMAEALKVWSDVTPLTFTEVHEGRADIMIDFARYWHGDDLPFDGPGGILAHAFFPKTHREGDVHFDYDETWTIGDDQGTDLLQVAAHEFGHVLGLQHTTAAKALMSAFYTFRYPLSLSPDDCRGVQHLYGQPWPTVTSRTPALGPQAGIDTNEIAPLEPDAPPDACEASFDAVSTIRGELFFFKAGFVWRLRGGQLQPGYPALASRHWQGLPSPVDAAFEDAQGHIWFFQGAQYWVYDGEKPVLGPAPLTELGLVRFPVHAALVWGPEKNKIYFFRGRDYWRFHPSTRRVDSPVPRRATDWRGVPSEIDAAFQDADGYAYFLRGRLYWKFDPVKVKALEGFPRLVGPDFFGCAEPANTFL

[11] = tested on: HT-29; test: Antitumor activity against human HT-29 cells expressing low level of APN xenografted in athymic nude mouse at 30 mg/kg, ip administered once every 3 days relative to control; type: functional; conditions: HT-29, ip, 72 h, route intraperitoneal, read-out: TGI
[12] = biological target: Macrophage metalloelastase (Homo sapiens) (UniProt P39900); test: Inhibition of MMP12 (unknown origin) up to 50 uM
Macrophage metalloelastase (Homo sapiens), sequence (P39900 106-470 limits assumed): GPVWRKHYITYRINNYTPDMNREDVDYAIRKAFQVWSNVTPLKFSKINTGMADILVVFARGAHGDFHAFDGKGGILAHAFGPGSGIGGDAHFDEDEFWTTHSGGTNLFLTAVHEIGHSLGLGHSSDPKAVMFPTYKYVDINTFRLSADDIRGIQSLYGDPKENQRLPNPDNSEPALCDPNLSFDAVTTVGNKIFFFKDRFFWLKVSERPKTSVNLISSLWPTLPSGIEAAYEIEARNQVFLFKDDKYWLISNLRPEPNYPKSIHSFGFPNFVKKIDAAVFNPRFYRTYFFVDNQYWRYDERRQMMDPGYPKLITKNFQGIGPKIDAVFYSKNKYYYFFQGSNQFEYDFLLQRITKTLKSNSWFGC

[13] = tested on: Caco-2; test: Antimigratory activity against human Caco2/TC7 cells after 16 hrs by wound healing assay; type: functional, cell-based
[14] = tested on: A673; test: Antiangiogenic activity against human A673 cells xenografted in athymic nude mouse assessed as reduction in microvessel density at 30 mg/kg, ip administered as single dose measured on day 26 relative to control; type: functional, organism-based; design: dose 30 mg/kg
[15] = tested on: HUVEC; test: Antimigratory activity against human HUVEC cells at 0.1 to 1 uM after 16 hrs by wound healing assay; type: functional, cell-based
[16] = Antimigratory activity against human Caco2/TC7 cells at 0.1 uM after 16 hrs by wound healing assay; type: functional, Caco-2
[17] = biological target: T2, Aminopeptidase N (Mus musculus, UniProt P97449); test: Inhibition of mouse APN using L-leucine-p-nitroanilide as substrate measured every 10 mins for 2 hrs by spectrophotometric analysis
T2 sequence (P97449 whole entry): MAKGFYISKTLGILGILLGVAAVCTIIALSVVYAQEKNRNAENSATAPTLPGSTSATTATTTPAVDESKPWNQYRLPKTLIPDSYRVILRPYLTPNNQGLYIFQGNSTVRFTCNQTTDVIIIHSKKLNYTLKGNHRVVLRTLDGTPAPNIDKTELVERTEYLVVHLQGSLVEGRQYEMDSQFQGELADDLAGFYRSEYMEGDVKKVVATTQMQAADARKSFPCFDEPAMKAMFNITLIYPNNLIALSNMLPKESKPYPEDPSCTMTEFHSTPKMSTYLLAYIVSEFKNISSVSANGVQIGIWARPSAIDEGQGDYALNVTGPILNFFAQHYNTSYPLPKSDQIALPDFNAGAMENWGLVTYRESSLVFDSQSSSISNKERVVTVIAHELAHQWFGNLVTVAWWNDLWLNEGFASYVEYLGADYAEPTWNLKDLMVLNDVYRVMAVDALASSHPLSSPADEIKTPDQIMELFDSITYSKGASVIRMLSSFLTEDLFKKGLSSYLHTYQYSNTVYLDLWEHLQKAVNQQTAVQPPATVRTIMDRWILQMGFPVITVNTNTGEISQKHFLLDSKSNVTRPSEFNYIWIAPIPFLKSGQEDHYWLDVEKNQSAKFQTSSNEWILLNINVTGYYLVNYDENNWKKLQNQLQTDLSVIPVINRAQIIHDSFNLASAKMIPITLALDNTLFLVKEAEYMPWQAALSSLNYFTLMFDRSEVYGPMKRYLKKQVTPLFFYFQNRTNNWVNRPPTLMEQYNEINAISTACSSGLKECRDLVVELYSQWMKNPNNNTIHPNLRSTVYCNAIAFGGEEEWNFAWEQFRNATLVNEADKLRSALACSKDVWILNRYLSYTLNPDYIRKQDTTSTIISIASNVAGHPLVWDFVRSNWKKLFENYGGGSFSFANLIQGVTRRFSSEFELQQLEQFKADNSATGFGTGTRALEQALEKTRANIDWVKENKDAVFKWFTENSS

[18] = Antitumor activity against human colon cancer cells expressing low level of APN xenografted in athymic nude mouse at 30 mg/kg, ip administered once every 3 days relative to control; type: functional; conditions: Cancer cell lines, 72 h, route intraperitoneal, read-out: TGI
[19] = biological target: 72 kDa type IV collagenase (Homo sapiens) (UniProt P08253); test: Inhibition of MMP2 (unknown origin) up to 50 uM
72 kDa type IV collagenase (Homo sapiens), sequence (P08253 110-660 limits assumed): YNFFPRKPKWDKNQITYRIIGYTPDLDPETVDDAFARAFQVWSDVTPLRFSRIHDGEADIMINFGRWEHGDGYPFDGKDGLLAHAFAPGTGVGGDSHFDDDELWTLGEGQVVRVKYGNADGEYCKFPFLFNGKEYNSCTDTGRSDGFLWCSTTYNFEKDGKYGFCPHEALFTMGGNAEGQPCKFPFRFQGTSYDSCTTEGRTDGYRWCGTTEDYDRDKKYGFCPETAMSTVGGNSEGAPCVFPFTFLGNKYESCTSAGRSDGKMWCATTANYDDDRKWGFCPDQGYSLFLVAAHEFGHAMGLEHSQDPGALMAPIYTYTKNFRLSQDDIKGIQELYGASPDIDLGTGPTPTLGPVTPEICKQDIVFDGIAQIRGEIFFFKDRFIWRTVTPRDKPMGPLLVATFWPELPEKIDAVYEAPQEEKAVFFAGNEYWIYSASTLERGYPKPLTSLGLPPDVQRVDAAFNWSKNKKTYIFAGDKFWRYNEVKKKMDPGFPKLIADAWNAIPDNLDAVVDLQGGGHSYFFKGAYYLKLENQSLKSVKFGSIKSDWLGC

[20] = tested on: HUVEC; test: Antimigratory activity against human HUVEC cells after 16 hrs by wound healing assay; type: functional, cell-based
[21] = Chemical stability of the compound in DMSO solution at 5 mg/ml after 20 days at 4 degC; type: physicochemical; conditions: 480 h
[22] = biological target: Collagenase 3 (Homo sapiens) (UniProt P45452); test: Inhibition of MMP13 (unknown origin) up to 50 uM
[23] = Cytotoxicity against human HUVEC cells assessed as concentration of compound causing 50% cell death after 24 hrs; type: cell-based; conditions: read-out: Activity
[24] = tested on: HUVEC; test: Antimigratory activity against human HUVEC cells at 0.01 uM after 16 hrs by wound healing assay; type: functional, cell-based
[25] = tested on: HUVEC; test: Antiangiogenic activity against human HUVEC cells assessed as inhibition of capillary tube formation at 10 uM after 24 hrs by phase contrast microscopic analysis; type: functional, cell-based
[26] = biological target: Aminopeptidase N (Homo sapiens, UniProt P15144)
Aminopeptidase N (Homo sapiens, UniProt P15144), sequence (P15144 whole entry): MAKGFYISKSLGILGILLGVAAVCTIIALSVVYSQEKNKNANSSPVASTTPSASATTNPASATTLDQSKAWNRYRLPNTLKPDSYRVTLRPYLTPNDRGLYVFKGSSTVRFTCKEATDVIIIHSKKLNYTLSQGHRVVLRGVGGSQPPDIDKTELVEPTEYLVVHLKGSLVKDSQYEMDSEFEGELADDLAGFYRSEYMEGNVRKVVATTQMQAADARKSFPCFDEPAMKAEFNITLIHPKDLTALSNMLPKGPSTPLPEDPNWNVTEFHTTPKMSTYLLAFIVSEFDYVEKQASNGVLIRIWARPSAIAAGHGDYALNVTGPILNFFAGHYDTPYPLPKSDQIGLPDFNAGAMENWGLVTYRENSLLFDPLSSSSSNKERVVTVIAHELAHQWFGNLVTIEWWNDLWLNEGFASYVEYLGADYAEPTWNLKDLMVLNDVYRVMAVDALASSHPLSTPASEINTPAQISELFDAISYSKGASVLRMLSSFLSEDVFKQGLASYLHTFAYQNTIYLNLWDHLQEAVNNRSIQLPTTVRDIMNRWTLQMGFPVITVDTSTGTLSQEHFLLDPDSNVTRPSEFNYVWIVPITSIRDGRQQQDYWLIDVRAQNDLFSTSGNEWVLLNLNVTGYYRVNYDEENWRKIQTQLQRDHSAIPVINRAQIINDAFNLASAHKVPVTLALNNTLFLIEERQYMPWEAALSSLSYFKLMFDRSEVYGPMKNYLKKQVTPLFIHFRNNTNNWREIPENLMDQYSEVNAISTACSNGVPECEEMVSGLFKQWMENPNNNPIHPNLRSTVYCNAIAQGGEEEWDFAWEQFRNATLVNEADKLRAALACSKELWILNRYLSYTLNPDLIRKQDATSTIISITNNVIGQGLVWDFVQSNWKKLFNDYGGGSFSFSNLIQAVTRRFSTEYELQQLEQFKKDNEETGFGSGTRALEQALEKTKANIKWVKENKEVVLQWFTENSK
Description: Inhibition of human APN using L-leucine-p-nitroanilide as substrate measured every 10 mins for 2 hrs by spectrophotometric analysis

[27] = tested on: Mus musculus; test: Toxicity in Swiss nude mouse assessed as convulsions at 100 mg/kg, ip administered once every 3 days 4 times measured post second-dose; type: organism-based; design: dose 100 mg/kg, route intraperitoneal; conditions: in vivo, 72 h
[28] = tested on: A673; test: Antitumor activity against human A673 cells xenografted in athymic nude mouse assessed as tumor growth inhibition at 40 mg/kg, ip administered as single dose measured on day 26 relative to control; type: functional; conditions: 624 h, route intraperitoneal, read-out: TGI
[29] = tested on: A673; test: Antiangiogenic activity against human A673 cells xenografted in athymic nude mouse assessed as reduction in microvessel density at 40 mg/kg, ip administered as single dose measured on day 26 relative to control; type: functional, organism-based; design: dose 40 mg/kg
[30] = tested on: Caco-2; test: Antimigratory activity against human Caco2/TC7 cells up to 1 uM after 16 hrs by wound healing assay; type: functional, cell-based
[31] = tested on: HUVEC; test: Antimigratory activity against human HUVEC cells assessed as inhibition of VEGF-induced migration at 0.1 uM after 16 hrs by Boyden chamber assay; type: functional
[32] = tested on: Mus musculus; test: Toxicity in Swiss nude mouse assessed as transient body weight loss at 100 mg/kg, ip measured up to 2 days relative to control; type: organism-based; design: dose 100 mg/kg, route intraperitoneal; conditions: in vivo, 48 h
[33] = tested on: Mus musculus; test: Toxicity in Swiss nude mouse assessed as catalepsy at 70 mg/kg, ip administered once every 3 days 8 times measured post second-dose; type: organism-based; design: dose 70 mg/kg, route intraperitoneal; conditions: in vivo, 72 h
[34] = tested on: HUVEC; test: Antiangiogenic activity against human HUVEC cells assessed as inhibition of capillary tube formation at 300 uM after 24 hrs by phase contrast microscopic analysis; type: functional, cell-based

In the case of `NC1CCc2c(Br)ccc(-c3ccccc3)c2CC1=O` (stereo unspecified), the inhibition at 1 µM [1] was 70%, the inhibition [2] was “Active” and the inhibition in vivo at 30 mg/kg [3] was 44%. For the same molecule, the Activity [4] was “Non-toxic”, the Stability [5] was “Stable” and the Stability [6] was “Stable”. The inhibition in vivo at 30 mg/kg [7] was 26%, the Activity [8] was 40% and the inhibition [9] was “inactive”. For the same molecule, the inhibition [10] was “inactive”, the inhibition in vivo at 30 mg/kg [11] was 15% and the inhibition [12] was “inactive”. The Activity [13] was “Dose-dependent effect”, the Activity [14] was “Active” and the Activity [15] was “Active”. For the same molecule, the Activity [16] was 30%, the pKi [17] was 9.70 and the inhibition in vivo at 30 mg/kg [18] was 8%. For the same molecule, the inhibition [19] was “inactive”, the Activity [20] was “Dose-dependent effect” and the Stability [21] was “Stable”. The inhibition [22] was “inactive”, the CC50 at 24 h [23] was 10000 nM and the Activity [24] was “Active”.

With `NC1CCc2ccccc2CC1=O` (stereo unspecified) the inhibition [25] was “Active”, the inhibition [9] was “inactive” and the inhibition [10] was “inactive”. For the same molecule, the pKi [26] was 5.70, the inhibition [12] was “inactive” and the inhibition [19] was “inactive”. For the same molecule, the inhibition [22] was “inactive” and the CC50 at 24 h [23] was 100000 nM.

With `Cl.NC1CCc2cccc(-c3ccccc3)c2CC1=O` (stereo unspecified) the inhibition [2] was “Active”, the Activity [4] was “Non-toxic” and the Stability [5] was “Stable”. The Stability [6] was “Stable”, the inhibition [9] was “inactive” and the inhibition [10] was “inactive”. For the same molecule, the Activity [27] was “Toxic”, the pKi [26] was 7.96 and the inhibition in vivo at 40 mg/kg [28] was 18%. The Activity [29] was “inactive”, the Activity [30] was “inactive” and the inhibition [12] was “inactive”. The Activity [13] was “Dose-dependent effect”, the inhibition at 0.1 µM [31] was 70% and the Activity [32] was “Toxic”. The Activity [15] was “Active”, the pKi [17] was 8.00 and the inhibition [19] was “inactive”. For the same molecule, the Activity [20] was “Dose-dependent effect”, the Stability [21] was “Stable” and the Activity [33] was “Toxic”. For the same molecule, the inhibition [22] was “inactive” and the CC50 at 24 h [23] was 20000 nM.

For `CC(C)C[C@H](NC(=O)[C@@H](O)[C@H](N)Cc1ccccc1)C(=O)O`, the inhibition [34] was “Active”.
